Experimental data taken from PMC12909347, “Disconnect between in vitro and in vivo efficacy of the MPS1 inhibitor NTRC 0066-0 against glioblastoma” (Cellular Oncology, 2026).

Experiments:
[1] = biological target: T1, MRP4 (Mus musculus, UniProt E9Q236); experiment: Brain penetration in Abcb1a/b;Abcg2;Abcc4-/- mice; assay type: in vivo; details: 1 h after 5 mg/kg i.v.
T1 construct: Abcb1a/b; from tissue; host or cells: blood-brain barrier / brain of FVB mice (Abcb1a/b;Abcg2;Abcc4-/- versus other strains)
T1 sequence (E9Q236 1-1325): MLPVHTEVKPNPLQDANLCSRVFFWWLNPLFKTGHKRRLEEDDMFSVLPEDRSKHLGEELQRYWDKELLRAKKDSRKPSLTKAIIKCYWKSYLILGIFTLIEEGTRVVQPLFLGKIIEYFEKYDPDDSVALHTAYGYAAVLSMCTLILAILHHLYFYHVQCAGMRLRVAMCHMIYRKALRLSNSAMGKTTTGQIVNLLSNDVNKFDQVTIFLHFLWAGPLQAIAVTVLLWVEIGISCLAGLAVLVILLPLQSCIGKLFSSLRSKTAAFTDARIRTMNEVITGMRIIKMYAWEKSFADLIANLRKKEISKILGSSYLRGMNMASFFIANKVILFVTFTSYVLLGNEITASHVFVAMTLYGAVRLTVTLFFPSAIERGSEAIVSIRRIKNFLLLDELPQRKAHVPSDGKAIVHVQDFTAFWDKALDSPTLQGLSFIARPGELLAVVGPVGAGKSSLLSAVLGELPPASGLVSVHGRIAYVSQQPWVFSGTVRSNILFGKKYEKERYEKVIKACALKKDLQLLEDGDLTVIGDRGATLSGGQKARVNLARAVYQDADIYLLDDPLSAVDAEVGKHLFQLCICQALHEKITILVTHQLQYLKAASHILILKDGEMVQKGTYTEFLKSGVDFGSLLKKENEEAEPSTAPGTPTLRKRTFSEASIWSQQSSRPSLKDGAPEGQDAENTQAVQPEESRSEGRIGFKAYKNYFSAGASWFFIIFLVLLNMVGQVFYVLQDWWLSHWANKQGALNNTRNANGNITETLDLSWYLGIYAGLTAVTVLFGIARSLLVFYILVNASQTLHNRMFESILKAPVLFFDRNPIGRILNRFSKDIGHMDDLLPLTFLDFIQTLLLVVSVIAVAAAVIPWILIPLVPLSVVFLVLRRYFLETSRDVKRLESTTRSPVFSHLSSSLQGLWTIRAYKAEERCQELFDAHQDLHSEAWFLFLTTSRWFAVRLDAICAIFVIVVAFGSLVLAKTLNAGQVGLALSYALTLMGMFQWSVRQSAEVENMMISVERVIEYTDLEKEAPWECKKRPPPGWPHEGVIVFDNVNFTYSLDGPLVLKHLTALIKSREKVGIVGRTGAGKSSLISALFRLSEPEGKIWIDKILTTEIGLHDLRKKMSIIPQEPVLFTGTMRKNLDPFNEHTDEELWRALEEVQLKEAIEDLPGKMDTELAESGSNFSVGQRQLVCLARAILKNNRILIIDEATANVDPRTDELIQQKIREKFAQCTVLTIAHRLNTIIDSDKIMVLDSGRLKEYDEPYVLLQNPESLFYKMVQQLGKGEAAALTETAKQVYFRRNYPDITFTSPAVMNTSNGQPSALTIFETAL
Procedure: (§1) The pharmacokinetics of NTRC 0066-0 were analyzed in wild-type (WT), Abcb1a/b^−/−, Abcg2^−/−, Abcb1a/b^−/−;Abcg2^−/− and Abcb1a/b^−/−;Abcg2^−/−;Abcc4^−/− FVB mice. All knockout mice strains have been developed at the Netherlands Cancer Institute. For i.v. administration, NTRC0066-0 was formulated in DMSO: Cremophor EL: saline (1:1:8 v/v) and injected at a dose of 5 mg/kg. For i.p and oral administration, NTRC0066-0 was administered at 5, 10 or 20 mg/kg as indicated. Serial blood sampling was done by tail vein bleeding at specific time points. At terminal time points, blood was drawn by cardiac puncture followed by tissue collection. Plasma was obtained from whole blood by centrifugation (5 min, 5,000 rpm, 4 °C) and tissues were weighed and homogenized using a FastPrep®-24 (MP-Biomedicals, NY) in 1% (w/v) bovine serum albumin (Sigma-Aldrich) in water.
NTRC 0066-0 was extracted from in vitro and in vivo samples using liquid–liquid extraction with diethyl ether. Another MPS-1 inhibitor, Compound 5 (Cpd-5), was added to the samples as an internal standard. The dried organic phase was reconstituted in 30% methanol in water (v/v). Samples were measured using an LC-MS/MS system comprising an UltiMate 3000 LC Systems (Dionex, Sunnyvale, CA) and an API 4000 mass spectrometer (Sciex, Framingham, MA). […]

[2] = Pharmacokinetics and brain penetration in Abcb1a/b;Abcg2-/- mice; assay type: in vivo; details: for Plasma AUC, Abcb1a/b;Abcg2-/- vs WT mice: 10 mg/kg
Procedure: as §1
NTRC 0066-0 was extracted from in vitro and in vivo samples using liquid–liquid extraction with diethyl ether. Another MPS-1 inhibitor, Compound 5 (Cpd-5), was added to the samples as an internal standard. The dried organic phase was reconstituted in 30% methanol in water (v/v). Samples were measured using an LC-MS/MS system comprising an UltiMate 3000 LC Systems (Dionex, Sunnyvale, CA) and an API 4000 mass spectrometer (Sciex, Framingham, MA). Samples were injected on to a Securityguard C18 pre-column (Phenomenex, Utrecht, The Netherlands) connected to a ZORBAX Extend-C18 column (Agilent, Santa Clara, CA). Elution was done at a flow rate of 0.2 mL/min using a 5 min gradient from 20% to 95% B (mobile phase A was 0.1% HCOOH in water (v/v) and mobile phase B was methanol). 95% B was maintained for 3 min followed by re-equilibration at 20% B. Multiple reaction monitoring parameters were 566.2/391.4 (NTRC0066-0) and 581.6/397.0 (internal standard). Analyst® 1.6.2 software (Sciex) was used for system control and data analysis.
PK solver was used to determine pharmacokinetic parameters. The standard error of the oral bioavailability was calculated using the formula below: […]

[3] = Abcb1a/b;Abcg2-/-, i.p. 10 mg/kg
[4] = Abcb1a/b;Abcg2-/-, p.o. 10 mg/kg

Compound: CCc1cccc(CC)c1NC(=O)c1ccn2c1CCc1cnc(Nc3ccc(N4CCN(C)CC4)cc3OC)nc1-2 [NTRC 0066-0]
- Brain concentration compared to Abcb1a/b-/- mice [1]: did not display further increased
- Lowest plasma trough concentration ([2]; 5 mg/kg p.o. morning + 10 mg/kg p.o. about 8 h later, 7 days (5/10 mg/kg b.i.d.x7d)): above 20 nM
- Brain concentration vs threshold level of in vitro efficacy ([2]; 1, 4, 8 and 24 h after 20 mg/kg p.o.): remained well above the threshold level of in vitro efficacy
- Concentration at 24 h, Abcb1a/b;Abcg2-/- vs WT mice ([2]; 24 h after 10 mg/kg): about 5 fold
- Plasma concentration ([2]; 24 h after 20 mg/kg p.o.): 6 nM
- Brain penetration (brain vs plasma) ([2]; Abcb1a/b;Abcg2-/- mice): 20 fold
- Brain-plasma ratio ([2]; Abcb1a/b;Abcg2-/- mice): above 20
- Oral bioavailability (relative to i.p.) ([2]; Abcb1a/b;Abcg2-/- mice): about 50%
- Brain concentration compared to Abcb1a/b-/- mice ([2]; Abcb1a/b;Abcg2-/- mice, 1 h after 5 mg/kg i.v.): did not display further increased
- Brain-to-plasma ratio ([2]; Abcb1a/b;Abcg2-/- mice, 24 h after 10 mg/kg p.o. or i.p.): approximately 20
- Cmax [2, 3]: 1700 ± 160 nM
- MRT [2, 3]: 4.3 ± 0.4 h
- t1/2 [2, 3]: 3.4 ± 0.4 h
- tmax [2, 3]: 0.8 ± 0.3 h
- Plasma AUCi.p. ([2]; Abcb1a/b;Abcg2-/-, i.p. 10 mg/kg, 0-∞): 11,000 ± 2200 nM.h
- Cmax [2, 4]: 550 ± 52 nM
- MRT [2, 4]: 5.2 ± 0.5 h
- t1/2 [2, 4]: 3.6 ± 0.2 h
- tmax [2, 4]: 3.3 ± 1.5 h
- F (bioavailability) ([2]; Abcb1a/b;Abcg2-/-, p.o. 10 mg/kg relative to i.p.): 43 ± 11%
- Plasma AUCp.o. ([2]; Abcb1a/b;Abcg2-/-, p.o. 10 mg/kg, 0-∞): 4.7 ± 0.71 µM·h
- Plasma AUC, Abcb1a/b;Abcg2-/- vs WT mice ([2]; after i.p. dosing): about 4 fold
- Plasma AUC, Abcb1a/b;Abcg2-/- vs WT mice ([2]; after oral dosing): ~3 fold
